From ChEMBL document CHEMBL3301562, “MMV Box screening against Plasmodium falciparum protein kinases and aminoacyl tRNA synthetases”

Tests used:
Type in all cases: functional
[1] = target: T1, Cdk-related protein kinase 6 (Plasmodium falciparum, UniProt O77239); assay: Final concentrations were 1.5 uM ATP, 5 mM MnCl2, and 15 ug/ml PK6 in a buffer of 100 mM Tris-HCl (pH 7.5). 50 ug/mL MBP was provided as the substrate; 10 uM staurosporine was used as a control inhibitor. Incubation time was 3 hours and 40 minutes.The catalytic activity of each kinase was considered proportional to ATP consumed, as determined from measurements of residual [ATP] with the luciferase-based reagent Kinase-Glo (Promega) following incubation. Luminescence (proportional to residual [ATP]) was measured on the plate readers FLx800 (BioTek Instruments, Winooski, VT, USA) and MicroBeta2.
T1 sequence (O77239 whole entry): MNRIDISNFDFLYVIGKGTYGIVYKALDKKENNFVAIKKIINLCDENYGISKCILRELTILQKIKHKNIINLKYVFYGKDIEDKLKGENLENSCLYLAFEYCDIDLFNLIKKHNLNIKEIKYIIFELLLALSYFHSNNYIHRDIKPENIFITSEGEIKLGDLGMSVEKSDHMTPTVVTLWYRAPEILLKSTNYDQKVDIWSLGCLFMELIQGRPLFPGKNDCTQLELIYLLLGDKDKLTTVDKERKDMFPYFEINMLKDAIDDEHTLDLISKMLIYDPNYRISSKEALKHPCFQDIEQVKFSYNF

[2] = target: T2, Putative uncharacterized protein pk7 (Plasmodium falciparum, UniProt O96214); assay: Final concentrations were 1 uM ATP, 2 mM DTT, 20 mM MgCl2, 2 mM MnCl2, 0.01% BSA, and 6 ug/ml PK7, in a buffer of 20 mM Tris-HCl (pH 7.5). The enzyme itself was the only substrate present (since autophosphorylation occurs); 100 uM 1NA-PP1 was used as a control inhibitor. Incubation time was 3 hours.
T2 sequence (O96214 whole entry): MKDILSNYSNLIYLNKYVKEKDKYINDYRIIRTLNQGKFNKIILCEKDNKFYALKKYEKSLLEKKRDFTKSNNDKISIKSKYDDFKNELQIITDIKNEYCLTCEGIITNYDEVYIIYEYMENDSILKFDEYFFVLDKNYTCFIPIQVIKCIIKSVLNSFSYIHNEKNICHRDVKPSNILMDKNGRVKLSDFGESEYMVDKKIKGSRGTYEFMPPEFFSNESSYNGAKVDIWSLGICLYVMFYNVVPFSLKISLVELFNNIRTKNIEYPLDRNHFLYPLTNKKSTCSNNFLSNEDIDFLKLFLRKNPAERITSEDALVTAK

[3] = target: T3, Mitogen-activated protein kinase (Plasmodium falciparum, UniProt Q25917); assay: Final concentrations were 1 uM ATP, 0.5 mM DTT, 1 mM MgCl2, 0.5 mg/mL BSA, and 10 ug/ml MAP2 in a buffer of 50 mM HEPES (pH 7.0). 0.5 mg/mL histone III-S served as the substrate (13); 100 uM AMP-PNP, an ATP analog, was used as a control inhibitor. Incubation time was 4 hours.
T3 sequence (Q25917 whole entry): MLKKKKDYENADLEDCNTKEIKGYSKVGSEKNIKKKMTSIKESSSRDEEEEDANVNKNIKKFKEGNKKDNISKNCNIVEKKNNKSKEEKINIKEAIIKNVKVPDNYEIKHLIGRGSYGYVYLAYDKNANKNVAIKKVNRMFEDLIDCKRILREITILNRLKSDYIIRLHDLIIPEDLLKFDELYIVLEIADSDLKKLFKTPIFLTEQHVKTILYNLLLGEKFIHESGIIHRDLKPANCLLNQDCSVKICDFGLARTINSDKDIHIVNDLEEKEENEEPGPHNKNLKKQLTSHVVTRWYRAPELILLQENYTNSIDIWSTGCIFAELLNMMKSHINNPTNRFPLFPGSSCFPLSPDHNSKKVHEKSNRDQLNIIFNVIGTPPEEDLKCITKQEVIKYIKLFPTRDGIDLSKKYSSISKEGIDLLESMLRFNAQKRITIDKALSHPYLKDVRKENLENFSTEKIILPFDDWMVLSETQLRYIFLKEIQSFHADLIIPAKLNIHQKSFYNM

[4] = target: Calcium-dependent protein kinase 1 (Plasmodium falciparum, UniProt P62344); assay: MMV: CDPK1 Protein kinase inhibition assay using recombinant PfCDPK1, syntide 2 peptide substrate, ATP and KinaseGlo to measure % inhibition at 1 uM MMV box compound.
[5] = target: T4, Calcium-dependent protein kinase 4 (Plasmodium falciparum (isolate 3D7), UniProt Q8IBS5); assay: MMV: CDPK4 Protein kinase inhibition assay using recombinant PfCDPK4, syntide2 peptide substrate, ATP and KinaseGlo to measure % inhibition at 1 uM MMV box compound.
T4 sequence (Q8IBS5 whole entry): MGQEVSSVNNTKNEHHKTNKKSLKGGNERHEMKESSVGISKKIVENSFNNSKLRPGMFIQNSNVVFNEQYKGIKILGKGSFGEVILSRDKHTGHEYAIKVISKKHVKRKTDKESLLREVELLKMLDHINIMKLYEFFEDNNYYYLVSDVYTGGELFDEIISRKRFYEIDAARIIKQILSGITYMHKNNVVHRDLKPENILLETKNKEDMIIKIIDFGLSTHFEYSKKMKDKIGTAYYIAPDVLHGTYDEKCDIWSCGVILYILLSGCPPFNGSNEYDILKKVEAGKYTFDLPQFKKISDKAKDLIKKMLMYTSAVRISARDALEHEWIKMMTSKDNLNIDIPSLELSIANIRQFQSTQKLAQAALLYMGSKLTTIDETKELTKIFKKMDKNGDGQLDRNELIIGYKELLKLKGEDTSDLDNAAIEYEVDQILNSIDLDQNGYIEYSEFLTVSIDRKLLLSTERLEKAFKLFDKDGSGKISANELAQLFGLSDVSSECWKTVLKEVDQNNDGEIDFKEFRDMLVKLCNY

Proline--tRNA ligase = target: T5, Proline--tRNA ligase (Plasmodium falciparum (isolate 3D7), UniProt Q8I5R7); assay: MMV: ProRS recombinant Plasmodium falciparum Prolyl-tRNA-synthetase, assay with yeast tRNA, ATP, and proline and 3 uM MMV malaria box compound, assay read out with kinase glo as % inhibition.
T5 sequence (Q8I5R7 whole entry): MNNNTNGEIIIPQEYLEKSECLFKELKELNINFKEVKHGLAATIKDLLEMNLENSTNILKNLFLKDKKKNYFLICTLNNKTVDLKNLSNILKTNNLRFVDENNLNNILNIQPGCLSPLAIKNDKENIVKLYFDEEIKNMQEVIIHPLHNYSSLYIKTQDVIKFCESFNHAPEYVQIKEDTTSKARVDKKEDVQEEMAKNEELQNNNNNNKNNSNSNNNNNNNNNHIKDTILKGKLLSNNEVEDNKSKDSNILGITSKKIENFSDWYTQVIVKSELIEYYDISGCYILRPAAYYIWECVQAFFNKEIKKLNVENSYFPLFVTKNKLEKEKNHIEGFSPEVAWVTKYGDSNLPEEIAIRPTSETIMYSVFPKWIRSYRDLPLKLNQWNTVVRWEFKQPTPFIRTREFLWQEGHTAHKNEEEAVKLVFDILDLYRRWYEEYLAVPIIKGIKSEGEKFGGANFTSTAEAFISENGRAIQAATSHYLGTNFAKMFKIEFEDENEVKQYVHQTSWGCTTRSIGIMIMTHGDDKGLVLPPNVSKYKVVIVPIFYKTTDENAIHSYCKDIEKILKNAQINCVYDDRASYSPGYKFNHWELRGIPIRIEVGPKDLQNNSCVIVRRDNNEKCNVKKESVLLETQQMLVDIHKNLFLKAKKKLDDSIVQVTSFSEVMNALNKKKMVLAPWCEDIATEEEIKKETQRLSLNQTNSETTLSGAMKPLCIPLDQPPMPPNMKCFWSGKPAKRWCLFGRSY

Lysine--tRNA ligase = Lysine--tRNA ligase (Plasmodium falciparum (isolate 3D7), UniProt Q8IDJ8); assay: MMV: KRS recombinant Plasmodium falciparum Lysyl-tRNA-synthetase, assay with yeast tRNA, ATP, and lysine and 3 uM MMV malaria box compound, assay read out with kinase glo as % inhibition.
Lysine--tRNA ligase, sequence (Q8IDJ8 whole entry): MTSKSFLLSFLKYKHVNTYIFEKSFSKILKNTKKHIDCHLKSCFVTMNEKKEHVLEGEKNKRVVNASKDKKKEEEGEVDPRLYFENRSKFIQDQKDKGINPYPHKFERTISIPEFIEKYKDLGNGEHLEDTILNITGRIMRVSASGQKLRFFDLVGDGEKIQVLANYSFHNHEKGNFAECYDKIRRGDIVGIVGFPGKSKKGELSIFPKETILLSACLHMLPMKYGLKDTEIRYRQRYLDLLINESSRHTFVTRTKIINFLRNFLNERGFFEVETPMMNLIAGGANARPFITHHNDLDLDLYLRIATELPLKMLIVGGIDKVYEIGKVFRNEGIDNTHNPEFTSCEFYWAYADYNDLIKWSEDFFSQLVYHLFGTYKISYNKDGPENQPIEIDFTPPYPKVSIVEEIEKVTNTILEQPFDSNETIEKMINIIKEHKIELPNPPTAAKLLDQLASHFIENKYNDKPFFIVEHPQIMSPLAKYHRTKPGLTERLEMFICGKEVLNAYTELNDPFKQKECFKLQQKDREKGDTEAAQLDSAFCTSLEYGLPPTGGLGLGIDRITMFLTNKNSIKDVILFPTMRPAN

Calcium-dependent protein kinase 1, sequence (P62344 whole entry): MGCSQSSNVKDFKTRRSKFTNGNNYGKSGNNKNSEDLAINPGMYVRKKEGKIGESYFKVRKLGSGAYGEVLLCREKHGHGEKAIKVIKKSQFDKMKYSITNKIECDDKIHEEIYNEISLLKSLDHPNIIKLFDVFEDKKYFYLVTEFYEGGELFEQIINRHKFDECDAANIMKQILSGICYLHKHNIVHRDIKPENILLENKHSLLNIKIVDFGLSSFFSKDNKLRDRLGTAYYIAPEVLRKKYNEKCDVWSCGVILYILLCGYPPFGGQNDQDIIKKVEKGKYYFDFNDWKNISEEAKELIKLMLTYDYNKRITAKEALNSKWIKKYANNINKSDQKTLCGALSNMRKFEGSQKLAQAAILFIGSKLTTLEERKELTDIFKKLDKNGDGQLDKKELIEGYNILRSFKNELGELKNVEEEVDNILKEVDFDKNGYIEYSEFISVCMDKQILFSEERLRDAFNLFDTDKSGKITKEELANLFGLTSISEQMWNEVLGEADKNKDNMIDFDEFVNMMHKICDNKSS

Compound | IC50 [1] | IC50 [2] | IC50 [3] | IC50 [4] | IC50 [5] | IC50 (Proline--tRNA ligase) | IC50 (Lysine--tRNA ligase)
COc1cccc(-c2nn(C)c3sc(C(=O)NCCN4CCN(c5ccccc5F)CC4)cc23)c1 | > 1000 nM | > 1000 nM | > 1000 nM | > 1000 nM | > 1000 nM | > 2500 nM | > 2500 nM
CN(C)c1ccc(C=Cc2nc(=O)c3ccccc3o2)cc1 | > 1000 nM | > 1000 nM | > 1000 nM | > 1000 nM | > 1000 nM | > 2500 nM | > 2500 nM
COc1ccccc1N1C(=N)SC(=Cc2ccc(OCc3ccccc3F)cc2)C1=O | > 1000 nM | > 1000 nM | > 1000 nM | > 1000 nM | > 1000 nM | > 2500 nM | > 2500 nM
Cc1ccc(N2C3c4ccccc4N(S(=O)(=O)c4ccc(C)cc4)C2c2ccccc2N3S(=O)(=O)c2ccc(C)cc2)cc1 | > 1000 nM | > 1000 nM | > 1000 nM | > 1000 nM | > 1000 nM | > 2500 nM | > 2500 nM
CCOc1ccc(Nc2ccnc3cc(Cl)ccc23)cc1 | > 1000 nM | > 1000 nM | > 1000 nM | > 1000 nM | > 1000 nM | > 2500 nM | > 2500 nM
COc1ccc(NC(=O)C2c3ccccc3C(=O)N(CC(C)C)C2c2cccs2)cc1Cl (stereo not given) | > 1000 nM | > 1000 nM | > 1000 nM | > 1000 nM | > 1000 nM | > 2500 nM | > 2500 nM
CCc1ccc(CNCC(O)c2ccccc2)cc1 (stereo not given) | > 1000 nM | > 1000 nM | > 1000 nM | > 1000 nM | > 1000 nM | > 2500 nM | > 2500 nM
COc1ccc(Nc2nc(N/N=C/c3ccc(O)cc3)nc(Nc3ccc([N+](=O)[O-])cc3)n2)cc1 | > 1000 nM | > 1000 nM | > 1000 nM | > 1000 nM | > 1000 nM | > 2500 nM | > 2500 nM
N#Cc1nc(Cc2cccc3ccccc23)oc1N1CCN(C(c2ccccc2)c2ccccc2)CC1 | > 1000 nM | > 1000 nM | > 1000 nM | > 1000 nM | > 1000 nM | > 2500 nM | > 2500 nM
Cc1ccc(N2C(=O)C3C(C2=O)C2(c4ccccc4)C(=O)C3(c3ccccc3)C(c3ccccc3)=C2c2ccccc2)cc1 (stereo not given) | > 1000 nM | > 1000 nM | > 1000 nM | > 1000 nM | > 1000 nM | > 2500 nM | > 2500 nM
COc1ccc(C=C2SC(=N)N(c3ccccc3OC)C2=O)cc1 | > 1000 nM | > 1000 nM | > 1000 nM | > 1000 nM | > 1000 nM | > 2500 nM | > 2500 nM
COc1ccc(CCn2c(=N)c(C(=O)NCc3cccnc3)cc3c(=O)n4cccc(C)c4nc32)cc1 | > 1000 nM | > 1000 nM | > 1000 nM | > 1000 nM | > 1000 nM | > 2500 nM | > 2500 nM
O=C(NC1CCN(Cc2ccccc2)CC1)c1cc2nc(-c3ccc(Cl)s3)cc(C(F)(F)F)n2n1 | > 1000 nM | > 1000 nM | > 1000 nM | > 1000 nM | > 1000 nM | > 2500 nM | > 2500 nM
CCOC(=O)c1cnc2ccc(OC)cc2c1Nc1ccc(N2CCN(C)CC2)cc1 | > 1000 nM | > 1000 nM | > 1000 nM | > 1000 nM | > 1000 nM | > 2500 nM | > 2500 nM
CCCN(CCC)CC(O)COc1ccccc1C(=O)Nc1ccccc1 (stereo not given) | > 1000 nM | > 1000 nM | > 1000 nM | > 1000 nM | > 1000 nM | > 2500 nM | > 2500 nM
COc1ccc(C(O)(CCC(C)C)C(CN2CCOCC2)c2ccc(Cl)cc2)cc1 (stereo not given) | > 1000 nM | > 1000 nM | > 1000 nM | > 1000 nM | > 1000 nM | > 2500 nM | > 2500 nM
COc1cc(CNCCc2ccc(Cl)cc2)cc(OC)c1O | > 1000 nM | > 1000 nM | > 1000 nM | > 1000 nM | > 1000 nM | > 2500 nM | > 2500 nM
COc1cc(OC)c(N(C)C(=O)c2cc3c(s2)-c2ccccc2S(=O)(=O)C3)cc1Cl | > 1000 nM | > 1000 nM | > 1000 nM | > 1000 nM | > 1000 nM | > 2500 nM | > 2500 nM
c1ccc2c(NCCc3c[nH]c4ccccc34)c3ccccc3nc2c1 | > 1000 nM | > 1000 nM | > 1000 nM | > 1000 nM | > 1000 nM | > 2500 nM | > 2500 nM
COc1cc2c(cc1OC)C1=NNC(=O)C1=NC(C)(C)C2 | > 1000 nM | > 1000 nM | > 1000 nM | > 1000 nM | > 1000 nM | > 2500 nM | > 2500 nM
